The test system of assay [1] is SMMC-7721 cells. As to the kind of experiment: MTT assay, proliferation of SMMC-7721 cells. Format: cell-based, human. Particulars: Homo sapiens; for pIC50: SMMC-7721, 48 h. The protocol:
(§1) The in vitro antitumor activities of the synthesized compounds 7a-l and 8a-l against five human cancer cells were evaluated in MTT assays using 5-fluorouracil (5-FU) and harmine as positive controls. These cells are human hepatocellular carcinoma cells (SMMC-7721 and Hep G2), human colon cancer cell lines (HCT116), human bladder carcinoma cells (EJ), and human lung cancer cells (H460).
(§2) Hepatocellular carcinoma cells (SMMC-7721 and Hep G2), Human colon cancer cell lines (HCT116), human bladder carcinoma cells (EJ) or human lung cancer cells (H460) at 10^4 cells per well were cultured in 10% FBS DMEM in 96-well flat-bottom microplates overnight. The cells were incubated in triplicate with, or without, different concentrations of each test compound for 48 h. During the last 4 h incubation, 30 μL of tetrazolium dye (MTT) solution (5 mg mL^−1) was added to each well. The resulting MTT-formazan crystals were dissolved in 150 μL DMSO, and absorbance was measured spectrophotometrically at 570 nm using an ELISA plate reader. The inhibition induced by each test compound at the indicated concentrations was expressed as a percentage. The concentration required for 50% inhibition (IC50) was calculated using the software (GraphPadPrism Version 4.03).

Assay [2] deals with H460 cells. As to the kind of experiment: MTT assay, proliferation of H460 cells. Format: cell-based. Conditions: NCI-H460, 48 h, H460 human lung cancer cells, read-out: In vitro cytotoxicity (IC50) H460. Here is the method: as §1, §2
The test system of assay [3] is EJ cells. Briefly: MTT assay, proliferation of EJ cells. Format: cell-based. Particulars: 48 h, EJ human bladder carcinoma cells, read-out: In vitro cytotoxicity (IC50) EJ. The protocol:
as §1, §2

Assay [4] relates to HCT116 cells. Briefly: MTT assay, proliferation of HCT116 cells. Conditions: Homo sapiens, HCT-116, 48 h, read-out: In vitro cytotoxicity (IC50) HCT116. Format: cell-based. The protocol:
as §1, §2

Assay [5] relates to Hep G2 cells. As to the kind of experiment: MTT assay, proliferation of Hep G2 cells. Conditions: Homo sapiens, HepG2, 48 h, read-out: In vitro cytotoxicity (IC50) Hep G2. Format: cell-based. Here is the method: as §1, §2
[6] abbreviates: read-out: In vitro cytotoxicity (IC50) SMMC-7721, MTT assay, 48 h, SMMC-7721 human hepatocellular carcinoma cells.

Structures are written as SMILES. pIC50: −log10 of the molar value. Read-outs that look alike come from different tables or passages of the source.

As for `Cc1ccccc1C(=O)NCCCNC(=O)c1cc2c(cn1)[nH]c1ccccc12` [7a, N-(3-(2-Methylbenzamido)propyl)-9H-pyrido[3,4-b]indole-3-carboxamide], the pIC50 in assay [1] (setting [6]) was 4.46; in assay [2], 4.51; in assay [3], 4.60; in assay [4], 4.44; in assay [5] it was 4.49.
The like results for `Cc1ccccc1C(=O)NCCCNC(=O)c1cc2c([nH]c3ccccc32)c(C)n1` [7b, 1-Methyl-N-(3-(2-methylbenzamido)propyl)-9H-pyrido[3,4-b]indole-3-carboxamide] were, in that order, 4.56, 4.52, 4.63, 4.54 and 4.63.
For `COc1ccc(-c2nc(C(=O)NCCCNC(=O)c3ccccc3C)cc3c2[nH]c2ccccc23)cc1` [7c, 1-(4-Methoxyphenyl)-N-(3-(2-methylbenzamido)propyl)-9H-pyrido[3,4-b]indole-3-carboxamide] the same measures were under 4.30, under 4.30, under 4.30, under 4.30 and under 4.30.
For `Cc1ccccc1C(=O)NCCCCNC(=O)c1cc2c(cn1)[nH]c1ccccc12` [7d, N-(4-(2-Methylbenzamido)butyl)-9H-pyrido[3,4-b]indole-3-carboxamide] the same measures were 4.61, 4.63, 4.74, 4.67 and 4.72.
As for `Cc1ccccc1C(=O)NCCCCNC(=O)c1cc2c([nH]c3ccccc32)c(C)n1` [7e, 1-Methyl-N-(4-(2-methylbenzamido)butyl)-9H-pyrido[3,4-b]indole-3-carboxamide], the pIC50 in assay [1] (setting [6]) was 4.75; in assay [2], 4.70; in assay [3] it was 4.88; in assay [4], 4.83; in assay [5] it was 4.82.
The like results for `COc1ccc(-c2nc(C(=O)NCCCCNC(=O)c3ccccc3C)cc3c2[nH]c2ccccc23)cc1` [7f, 1-(4-Methoxyphenyl)-N-(4-(2-methylbenzamido)butyl)-9H-pyrido[3,4-b]indole-3-carboxamide] were, in that order, 4.59, 4.42, 4.53, 4.49 and 4.51.
Turning to `Cc1ccccc1C(=O)NCCCCCNC(=O)c1cc2c(cn1)[nH]c1ccccc12` [7g, N-(5-(2-Methylbenzamido)pentyl)-9H-pyrido[3,4-b]indole-3-carboxamide], the pIC50 in assay [1] (setting [6]) is 4.80; in assay [2], 4.71; in assay [3], 4.82; in assay [4] it was 4.77; in assay [5] it was 4.84.
For `Cc1ccccc1C(=O)NCCCCCNC(=O)c1cc2c([nH]c3ccccc32)c(C)n1` [7h, 1-Methyl-N-(5-(2-methylbenzamido)pentyl)-9H-pyrido[3,4-b]indole-3-carboxamide] the same measures were 4.89, 4.88, 4.92, 4.80 and 4.95.
For `COc1ccc(-c2nc(C(=O)NCCCCCNC(=O)c3ccccc3C)cc3c2[nH]c2ccccc23)cc1` [7i, 1-(4-Methoxyphenyl)-N-(5-(2-methylbenzamido)pentyl)-9H-pyrido[3,4-b]indole-3-carboxamide] the same measures were 4.42, 4.56, under 4.30, 4.34 and under 4.30.
For `Cc1ccccc1C(=O)NCCCCCCNC(=O)c1cc2c(cn1)[nH]c1ccccc12` [7j, N-(6-(2-Methylbenzamido)hexyl)-9H-pyrido[3,4-b]indole-3-carboxamide] the same measures were 4.63, 4.82, 4.74, 4.58 and 4.55.
For the compound `Cc1ccccc1C(=O)NCCCCCCNC(=O)c1cc2c([nH]c3ccccc32)c(C)n1` [7k, 1-Methyl-N-(6-(2-methylbenzamido)hexyl)-9H-pyrido[3,4-b]indole-3-carboxamide], the pIC50 was 4.95 in assay [1] (setting [6]); 4.84 in assay [2]; 4.86 in assay [3]; 4.82 in assay [4]; 4.77 in assay [5].
With `COc1ccc(-c2nc(C(=O)NCCCCCCNC(=O)c3ccccc3C)cc3c2[nH]c2ccccc23)cc1` [7l, 1-(4-Methoxyphenyl)-N-(6-(2-methylbenzamido)hexyl)-9H-pyrido[3,4-b]indole-3-carboxamide], the pIC50 in assay [1] (setting [6]), in assay [2] and in assay [4] was under 4.30 each time.
Take `O=C(NCCCNC(=O)c1ccccc1O)c1cc2c(cn1)[nH]c1ccccc12` [8a, N-(3-(2-Hydroxybenzamido)propyl)-9H-pyrido[3,4-b]indole-3-carboxamide]: the negative-log IC50 (pIC50) in assay [1] (setting [6]) was 4.65; in assay [2], 4.59; in assay [3], 4.80; in assay [4], 4.70; in assay [5], 4.72.
For the compound `Cc1nc(C(=O)NCCCNC(=O)c2ccccc2O)cc2c1[nH]c1ccccc12` [8b, N-(3-(2-Hydroxybenzamido)propyl)−1-methyl-9H-pyrido[3,4-b]indole-3-carboxamide], the pIC50 in assay [1] (setting [6]) is 4.72; in assay [2], 4.65; in assay [3], 4.82; in assay [4], 4.87.
On to `COc1ccc(-c2nc(C(=O)NCCCNC(=O)c3ccccc3O)cc3c2[nH]c2ccccc23)cc1` [8c, N-(3-(2-Hydroxybenzamido)propyl)-1-(4-methoxyphenyl)-9H-pyrido[3,4-b]indole-3-carboxamide], for which the negative logarithm of the IC50 (pIC50) is 4.44 in assay [1] (setting [6]); under 4.30 in assay [2]; 4.41 in assay [3]; 4.48 in assay [4]; 4.34 in assay [5].
For `O=C(NCCCCNC(=O)c1ccccc1O)c1cc2c(cn1)[nH]c1ccccc12` [8d, N-(4-(2-Hydroxybenzamido)butyl)-9H-pyrido[3,4-b]indole-3-carboxamide] the same measures were 4.89, 4.82, 4.92, 4.80 and 4.93.
The like results for `Cc1nc(C(=O)NCCCCNC(=O)c2ccccc2O)cc2c1[nH]c1ccccc12` [8e, N-(4-(2-Hydroxybenzamido)butyl)−1-methyl-9H-pyrido[3,4-b]indole-3-carboxamide] were, in that order, 5.10, 4.92, 5.05, 5.03 and 5.03.
In the case of `COc1ccc(-c2nc(C(=O)NCCCCNC(=O)c3ccccc3O)cc3c2[nH]c2ccccc23)cc1` [8f, N-(4-(2-Hydroxybenzamido)butyl)-1-(4-methoxyphenyl)-9H-pyrido[3,4-b]indole-3-carboxamide], the pIC50 was 4.70 in assay [1] (setting [6]); 4.64 in assay [2]; 4.82 in assay [3]; 4.74 in assay [4]; 4.75 in assay [5].
Turning to `O=C(NCCCCCNC(=O)c1ccccc1O)c1cc2c(cn1)[nH]c1ccccc12` [8g, N-(5-(2-Hydroxybenzamido)pentyl)-9H-pyrido[3,4-b]indole-3-carboxamide], the pIC50 in assay [1] (setting [6]) was 4.97; in assay [2], 4.90; in assay [3], 5.06; in assay [4] it was 5.04; in assay [5] it was 5.04.
Consider `COc1ccc(-c2nc(C(=O)NCCCCCNC(=O)c3ccccc3O)cc3c2[nH]c2ccccc23)cc1` [8i, N-(5-(2-Hydroxybenzamido)pentyl)-1-(4-methoxyphenyl)-9H-pyrido[3,4-b]indole-3-carboxamide], for which the pIC50 is 4.33 in assay [1] (setting [6]); 4.41 in assay [2]; under 4.30 in assay [3]; under 4.30 in assay [4]; 4.51 in assay [5].
For the compound `COc1ccc(-c2nc(C(=O)NCCCCCCNC(=O)c3ccccc3O)cc3c2[nH]c2ccccc23)cc1` [8l, N-(6-(2-Hydroxybenzamido)hexyl)-1-(4-methoxyphenyl)-9H-pyrido[3,4-b]indole-3-carboxamide], the pIC50 in assay [1] (setting [6]) is under 4.30; in assay [2], under 4.30; in assay [4], under 4.30; in assay [5] it was 4.38.
For the compound `O=C(O)c1ccccc1O` [SA, salicylic acid], the inhibition at 25 µM in assay [1] (SMMC-7721, 25 μM, 48 h, MTT assay, read-out: Inhibition of SMMC-7721 cell proliferation) was about 15%.
As to `COc1ccc2c(c1)[nH]c1c(C)nccc12` [harmine, reference compound], the pIC50 in assay [1] (read-out: In vitro cytotoxicity (IC50) SMMC-7721) was 4.31; in assay [4], 4.33; in assay [5], 4.26.
